Measured values reported in US20250163484A1, “Methods for Incorporating Azido Groups in Bacterial Capsular Polysaccharides” (PFIZER INC., priority 2022, published 2025).

Assays:
S. pneumoniae T14 [1] = assay: Growth of S. pneumoniae T14 in fermentation with azido sugar (OD600); type: cell-based, Streptococcus pneumoniae serotype 14
S. pneumoniae T14 [2] = type: cell-based, Streptococcus pneumoniae serotype 14; conditions: production medium + Galactose (30 g/L)
Description: (§1) FIGS. 1A-1D. Screen for azido sugar incorporation into S. pneumoniae T14 capsule polysaccharide. […] Bacteria were grown until the ΔOD600≥0 for >30 minutes, then lysed with 0.1% NLS for 30 minutes. Growth was measured offline using a spectrophotometer blanked with PBS at 600 nm. (FIG. 1A) azido incorporation into polysaccharide was then quantified via fluorescent labeling (FL) with normalization to refractive index (RI). MaxOD and End Of Fermentation time (EOF) are provided in (FIG. 1B) and (FIG. 1C), respectively. Polysaccharide was extracted using EtOH and CaCl2 and analyzed via SEC-RI for (FIG. 1D) polysaccharide titer. n=1-4, error bars=+/−StDev.
FIGS. 2A-2D Impact of 2AzGlcAc4 concentration on S. pneumoniae T14 growth and poly production in production medium supplemented with Galactose (30 g/L). […] (FIG. 2A) Growth was measured offline using a spectrophotometer blanked with PBS at 600 nm. At the end of fermentation, cultures were lysed with 0.1% NLS for 30 min. and polysaccharide was extracted via EtOH/CaCl2) precipitation. Polysaccharide titer (FIG. 2B) and size (FIG. 2C) were measured via SEC-RI and SEC-MALS, respectively. (FIG. 2D) azido incorporation was then quantified via fluorescent labeling (FL) and normalized to the refractive index (RI). n=3, error bars=+/−StDev.
FIGS. 3A-3E Impact of 2AzGlc concentration on S. pneumoniae T14 growth and polysaccharide production in production medium supplemented with Galactose (30 g/L). […] (FIG. 3A) Growth was measured offline using a spectrophotometer blanked with PBS at 600 nm. Cultures were lysed with 0.1% NLS for 30 min. and polysaccharide was extracted via EtOH/CaCl2) precipitation. Polysaccharide (FIG. 3B/FIG. 3C) titer and (FIG. 3D) size were measured via SEC-RI and SEC-MALS, respectively. (FIG. 3E) azido incorporation was then quantified via fluorescent labeling (FL) and normalized to the refractive index (RI). n=3, error bars=+/−StDev.
We tested the impact of 2AzGlc concentration on S. pneumoniae T14 growth, polysaccharide production, and azido incorporation by growing the bacteria in production media (supplemented with Glucose (dextrose, 30 g/L)) with various concentrations of 2AzGlc (0, 1, 5, 10, 20, 40, and 60 mM).

[3] = Solubility of azido sugar in production medium; type: physicochemical; conditions: production medium supplemented with galactose (30 g/L), aqueous buffer; read-out: limit of solubility
[4] = test system: S. pneumoniae T14 capsule polysaccharide; type: cell-based, Streptococcus pneumoniae serotype 14; conditions: 2AzGlcAc4 2.5-10 mM, production medium + Galactose (30 g/L), DMSO 2%
Description: as §1
A SEC fluorescence and Refractive index assay (SEC-FL/RI) was used for azide measurement to confirm the incorporation of azide modification.
Click-It Cell Reaction Buffer kit and Alexa Fluor 488 Alkyne were purchased from Invitrogen.
The initial procedure when running the SEC-FL/RI was to prepare the sample to a target concentration of 0.01 mg/m by mixing a pre-diluted polysaccharide to the final target concentration with the Click Reaction mixture. The reaction mixture consisted of 2.67 mM CuSO4, 2.67 mg/mL cell additive reagent, and 20 uM Alexa Fluor Alkyne. This was mixed with the sample at a 3:1 ratio of reaction mixture to sample and incubated in the absence of light. Reactions were transferred to HPLC vials and ran on the SEC-FL/RI HPLC setup. The RI detector (RID) allowed for detection of the polysaccharide while the Fluorescence Detector (FLD) was used to determine the level of fluor incorporated into the polysaccharide sample. The ratio of the two peak areas gave a measurement for the amount of azide incorporated to the polysaccharide.
Later, in addition to the incubation of the sample for thirty minutes, a buffer exchange step was added that washed out the unreacted fluor as well as the reaction matrix reagents in order to improve the baselines of the FLD and RID during the HPLC run. This added greater resolution of the peak associated with the azide functionalized polysaccharide. The assay was useful for relative quantitation of azide incorporation into the polysaccharide but could not quantify an exact numerical concentration. To improve this aspect work was undertaken to use a polysaccharide with known levels of azido functionalization to make a standard curve that varied the % Azido while keeping the polysaccharide mass the same. This was done by mixing the known azido modified poly (polysaccharide) with specific amounts of native (unmodified) polysaccharide. A strong linear fit for the generated standard curve was seen.
The values for percent azide were able to be converted to a μM azide per mM polysaccharide by converting from % azide using the constant polysaccharide concentration.

With CC(=O)OC[C@H]1OC(O)[C@H](N=[N+]=[N-])[C@@H](OC(C)=O)[C@@H]1O (stereo partly drawn) [2AzGlcAc2, 3,6-Di-O-acetyl-2-azido-2-deoxy-D-glucopyranose] the growth (S. pneumoniae T14 [1]; azido sugar 20 mM without DMSO, production medium + Galactose (30 g/L)) was “strongly inhibited” and the polysaccharide production (S. pneumoniae T14 [2]; azido sugar 20 mM without DMSO) was “strongly inhibited”.

For CC(=O)OC[C@H]1OC(OC(C)=O)[C@H](N=[N+]=[N-])[C@@H](OC(C)=O)[C@@H]1OC(C)=O (stereo partly drawn) [2AzGlcAc4, 1,3,4,6-Tetra-O-acetyl-2-azido-2-deoxy-D-glucopyranose], the impact on growth (S. pneumoniae T14 [1]; 2AzGlcAc4 2.5, 5, 7.5, 10 mM, production medium + Galactose (30 g/L), DMSO 2%) was “no impact”, the solubility [3] was at most 1000 µM and the polysaccharide titer (S. pneumoniae T14 [2]; 2AzGlcAc4 2.5, 5, 10 mM (not 7.5 mM), DMSO 2%) was “statistically significant reduction”. For the same compound, the “FL/RI with increasing concentrations” value [4] was “did not cause an increase”.

In the case of [N-]=[N+]=N[C@H]1[C@H](O)[C@@H](CO)OC(O)[C@@H]1O (stereo partly drawn) [3AzGlc, 3-azido-3-deoxy-D-glucopyranose], the “End Of Fermentation (EOF) time” value (S. pneumoniae T14 [1]; screen, azido sugar 1 mM, only in production medium + Galactose) is reported as “elongated”.
